Tested on: P301S tau Tg mice
Experiment: Tau accumulation in hippocampus by RAB-RIPA-FA extraction and Western blotting
Format: in vivo, mouse
Conditions: 3 mg/kg daily, from 6 to 9 months of age
Method: T-518, ACY-738, Ricolinostat, and Tubastatin A were synthesized in Takeda. For in vitro cellular experiments, the compounds were solubilized with DMSO and diluted in the culture medium at the indicated concentrations. For in vivo experiments, the compound was reconstituted in 0.5% methylcellulose and administered orally at the indicated doses. After administration, mouse hippocampus was isolated and homogenized in RIPA extraction buffer (50 mM Tris–HCl, 150 mM NaCl, 1% NP-40, 0.5% sodium deoxycholate, and 0.1% SDS, pH 8.0) supplemented with protease and phosphatase inhibitor cocktail (Thermo Fischer, Waltham, MA, USA). The homogenate was centrifuged at 10,000g for 15 min and the supernatant was taken as the RIPA-soluble fraction.
Cell lysate or in vivo protein samples were separated by 10% SDS-PAGE, then electrophoretically transferred to 0.45 μm poly-vinylidene difluoride membranes (Millipore). Membranes were blocked for 1 h in Blocking Reagent (TOYOBO, Osaka, Japan), probed with primary antibodies followed by labeling with HRP-coupled secondary antibodies (Amersham, Piscataway, NJ), and then visualized using chemiluminescence reagent (ECL; Amersham). Images were captured using ImageQuant LAS 4000 (GE healthcare Bio-Sciences, Marlborough, MA, USA). Quantitative densitometric analyses were conducted using ImageQuant TL (GE healthcare Bio-Sciences). […]

Compound: O=C1c2cc(-c3nnc(C(F)F)o3)cnc2CN1[C@@H]1CCCC[C@H]1NC(=O)C(F)(F)C(F)(F)F [T-518, N-[(1R,2R)-2-{3-[5-(difluoromethyl)-1,3,4-oxadiazol-2-yl]-5-oxo-5H,6H,7H-pyrrolo[3,4-b]pyridin-6-yl}cyclohexyl]-2,2,3,3,3-pentafluoropropanamide]
- RAB-soluble and RIPA-soluble tau fractions in hippocampus: without affecting
- accumulation of tau in the FA fraction (RIPA-insoluble tau) in hippocampus: significantly decreased

Source: article PMC8322070, “A novel orally active HDAC6 inhibitor T-518 shows a therapeutic potential for Alzheimer’s disease and tauopathy in mice” (Scientific Reports, 2021)
